Earlier results on one compound are cited in US7939308B2, “Bio-based method for making mannitol” (The United States of America as represented by the …, priority 2002, dated 2011).

Converted amounts (≈) assume the structure as drawn.

The conditions of this series: at 25° C.

As for `OC[C@@H](O)[C@@H](O)[C@H](O)[C@H](O)CO` [mannitol, Mannitol], the solubility limit is 180 mg/mL (≈ 988 mM).
